# Assays:
# human α7 nAChRs [1] = target: T1, human α7 nAChRs (Homo sapiens, UniProt P36544); assay: Two-electrode voltage-clamp recording, wild-type human α7 nAChRs expressed in Xenopus oocytes; type: cell-based; settings: for Fold potentiation: Human α7, maximum fold potentiation of responses to an EC50 of acetylcholine (100 μM), mean ± SEM; for Imax: Wild-type α7, normalised to the maximum response to acetylcholine; for Effect on rate of desensitisation of acetylcholine-evoked responses: wild-type α7, acetylcholine 100 μM, pre- and co-application of PAM; for Desensitisation after receptor reactivation: acetylcholine co-applied with compound, period of 30 s; for Total net charge transfer relative to initial application of acetylcholine alone: measured during a 30 s application of compound in continued presence of acetylcholine (100 μM)
# T1 construct: expressed in transfected cells; host or cells: Xenopus laevis oocytes (cRNA injection)
# T1 sequence (P36544 23-502): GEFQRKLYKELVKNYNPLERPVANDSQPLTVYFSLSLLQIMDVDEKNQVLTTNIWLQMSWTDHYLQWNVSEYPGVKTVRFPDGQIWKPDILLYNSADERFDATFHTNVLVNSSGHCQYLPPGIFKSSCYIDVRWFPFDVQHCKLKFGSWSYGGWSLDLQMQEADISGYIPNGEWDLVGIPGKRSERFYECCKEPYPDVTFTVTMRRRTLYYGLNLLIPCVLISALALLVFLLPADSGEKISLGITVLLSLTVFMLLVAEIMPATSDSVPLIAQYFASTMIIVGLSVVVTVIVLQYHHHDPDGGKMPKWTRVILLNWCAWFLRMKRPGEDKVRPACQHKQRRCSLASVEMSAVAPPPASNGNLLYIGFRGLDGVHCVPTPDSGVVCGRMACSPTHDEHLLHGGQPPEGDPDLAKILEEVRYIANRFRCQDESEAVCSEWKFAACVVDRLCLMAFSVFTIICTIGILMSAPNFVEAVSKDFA
# Procedure: All plasmid constructs used in this study have been described previously.
# (§1) Oocytes were isolated from adult female Xenopus laevis following procedures that have been approved by UCL's Biological Services Management Group and the UK Home Office. […] Heterologous expression was achieved by injection of wild-type or mutated α7 cRNA (6–12 ng) into oocyte cytoplasm. Oocytes were injected in a volume of 20–30 nl using a Drummond variable volume microinjector. […] Experiments were performed on oocytes after 3–5 days of incubation.
# human α4β2 nAChRs = target: T2, human α4β2 nAChRs (Homo sapiens, UniProt P17787+P43681); assay: Two-electrode voltage-clamp recording, human α4β2 nAChRs in Xenopus oocytes; type: cell-based; set-up: concentration or dose not given beside the values; settings: inhibition of agonist-evoked responses, mean ± SEM
# T2 construct: expressed in transfected cells; host or cells: Xenopus laevis oocytes
# T2 sequence (P43681 29-627 limits assumed): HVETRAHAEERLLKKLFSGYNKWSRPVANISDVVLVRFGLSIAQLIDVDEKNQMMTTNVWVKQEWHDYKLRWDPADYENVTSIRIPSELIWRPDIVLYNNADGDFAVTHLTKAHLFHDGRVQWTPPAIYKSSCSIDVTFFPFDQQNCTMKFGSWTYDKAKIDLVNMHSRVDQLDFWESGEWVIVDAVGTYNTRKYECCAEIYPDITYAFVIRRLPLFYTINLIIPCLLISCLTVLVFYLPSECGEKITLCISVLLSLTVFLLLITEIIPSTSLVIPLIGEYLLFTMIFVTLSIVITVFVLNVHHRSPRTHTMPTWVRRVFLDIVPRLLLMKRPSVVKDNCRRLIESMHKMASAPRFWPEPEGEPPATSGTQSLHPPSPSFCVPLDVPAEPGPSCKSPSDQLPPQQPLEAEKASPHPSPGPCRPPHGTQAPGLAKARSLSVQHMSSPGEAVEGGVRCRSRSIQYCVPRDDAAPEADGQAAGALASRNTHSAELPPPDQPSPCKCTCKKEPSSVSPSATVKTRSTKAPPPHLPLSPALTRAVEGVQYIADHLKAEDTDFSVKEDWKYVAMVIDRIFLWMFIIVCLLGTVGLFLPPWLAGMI
# T2 sequence (P17787 26-502): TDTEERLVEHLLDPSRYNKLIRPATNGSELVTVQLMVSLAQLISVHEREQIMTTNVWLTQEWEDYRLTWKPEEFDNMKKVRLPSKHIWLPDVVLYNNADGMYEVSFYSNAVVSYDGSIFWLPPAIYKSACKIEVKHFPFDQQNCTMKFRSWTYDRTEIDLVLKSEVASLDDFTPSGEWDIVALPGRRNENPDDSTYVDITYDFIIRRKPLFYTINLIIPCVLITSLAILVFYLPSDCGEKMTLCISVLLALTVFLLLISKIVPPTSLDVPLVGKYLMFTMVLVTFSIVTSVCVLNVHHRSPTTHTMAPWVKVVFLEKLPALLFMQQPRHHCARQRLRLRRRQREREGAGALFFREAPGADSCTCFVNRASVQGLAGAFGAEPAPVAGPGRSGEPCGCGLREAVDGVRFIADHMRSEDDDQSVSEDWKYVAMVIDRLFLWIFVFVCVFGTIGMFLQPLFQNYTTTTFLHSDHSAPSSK
# Description: (§2) All plasmid constructs used in this study have been described previously. These include plasmids containing cDNAs encoding human α3, α4, α7, β2 and β4 nAChR subunits in pSP64GL ([Broadbent et al., 2006]); rat α7 nAChR subunit in pcDNA3 ([Cooper and Millar, 1997]); α7/5-HT3A subunit chimera (containing the rat α7 N-terminal domain and mouse 5-HT3A transmembrane and C-terminal domain) in pcDNA3 ([Cooper and Millar, 1998]); human RIC-3 in pRK5 ([Lansdell et al., 2005]) and mouse 5-HT3A ([Maricq et al., 1991]) in pRK5.
# (§3) Oocytes were isolated from adult female Xenopus laevis following procedures that have been approved by UCL's Biological Services Management Group and the UK Home Office. Oocytes were defolliculated as described previously ([Young et al., 2007]) by treatment with collagenase (2 mg/ml; Worthington Biochemicals, Freehold, NJ) in calcium-free Barth's solution containing 88 mM NaCl, 2.4 mM NaHCO3, 1 mM KCl, 0.82 mM MgSO4, and 15 mM Tris, pH 7.5. Heterologous expression was achieved by injection of wild-type or mutated α7 cRNA (6–12 ng) into oocyte cytoplasm. Oocytes were injected in a volume of 20–30 nl using a Drummond variable volume microinjector. After injection, oocytes were incubated at 18 °C in a calcium-containing Barth's solution (composition, as above, but with 0.77 mM CaCl2) supplemented with antibiotics (100 units/ml penicillin, 100 μg/ml streptomycin, 4 μg/ml kanamycin, and 50 μg/ml tetracycline). Experiments were performed on oocytes after 3–5 days of incubation. […] Two-electrode voltage-clamp recordings were performed (with the oocyte membrane potential held at −60 mV), as described previously ([Gill et al., 2012; Young et al., 2007]).
# human α3β4 nAChRs = target: T3, human α3β4 nAChRs (Homo sapiens, UniProt P30926+P32297); assay: Two-electrode voltage-clamp recording, human α3β4 nAChRs in Xenopus oocytes; type: cell-based; set-up: concentration or dose not given beside the values; settings: inhibition of agonist-evoked responses, mean ± SEM
# T3 construct: expressed in transfected cells; host or cells: Xenopus laevis oocytes
# T3 sequence (P32297 32-505): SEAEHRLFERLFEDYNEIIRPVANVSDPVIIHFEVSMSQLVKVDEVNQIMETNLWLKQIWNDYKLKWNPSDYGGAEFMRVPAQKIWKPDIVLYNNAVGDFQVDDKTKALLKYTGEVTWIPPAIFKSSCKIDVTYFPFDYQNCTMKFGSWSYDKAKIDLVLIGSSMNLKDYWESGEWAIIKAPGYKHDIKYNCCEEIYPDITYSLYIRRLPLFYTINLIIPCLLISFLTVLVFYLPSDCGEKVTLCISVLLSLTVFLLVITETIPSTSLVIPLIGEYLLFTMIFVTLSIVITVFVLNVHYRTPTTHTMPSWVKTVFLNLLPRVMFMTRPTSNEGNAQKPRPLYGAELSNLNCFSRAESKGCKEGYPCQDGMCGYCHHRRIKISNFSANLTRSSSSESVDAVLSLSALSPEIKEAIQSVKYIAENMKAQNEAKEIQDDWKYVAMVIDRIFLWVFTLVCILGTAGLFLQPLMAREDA
# T3 sequence (P30926 22-498): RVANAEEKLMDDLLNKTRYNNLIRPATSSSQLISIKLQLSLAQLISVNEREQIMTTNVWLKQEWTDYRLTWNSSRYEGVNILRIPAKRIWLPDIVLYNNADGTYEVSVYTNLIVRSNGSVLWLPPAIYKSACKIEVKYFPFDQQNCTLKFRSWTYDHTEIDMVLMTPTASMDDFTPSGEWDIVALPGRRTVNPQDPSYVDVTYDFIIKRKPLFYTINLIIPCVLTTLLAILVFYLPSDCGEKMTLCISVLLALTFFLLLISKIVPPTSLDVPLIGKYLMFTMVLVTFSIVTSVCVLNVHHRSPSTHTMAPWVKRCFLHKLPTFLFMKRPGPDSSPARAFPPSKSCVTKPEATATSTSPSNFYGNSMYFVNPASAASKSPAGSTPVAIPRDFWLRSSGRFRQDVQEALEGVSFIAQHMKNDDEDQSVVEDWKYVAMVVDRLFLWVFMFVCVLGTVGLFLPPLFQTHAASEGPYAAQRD
# Description: as §2, §3
# rat α7 nAChRs = target: T4, rat α7 nAChRs (Rattus norvegicus, UniProt Q05941); assay: Two-electrode voltage-clamp recording, rat α7 nAChRs in Xenopus oocytes; type: cell-based; settings: mean ± SEM
# T4 construct: expressed in transfected cells; host or cells: Xenopus laevis oocytes
# T4 sequence (Q05941 23-502): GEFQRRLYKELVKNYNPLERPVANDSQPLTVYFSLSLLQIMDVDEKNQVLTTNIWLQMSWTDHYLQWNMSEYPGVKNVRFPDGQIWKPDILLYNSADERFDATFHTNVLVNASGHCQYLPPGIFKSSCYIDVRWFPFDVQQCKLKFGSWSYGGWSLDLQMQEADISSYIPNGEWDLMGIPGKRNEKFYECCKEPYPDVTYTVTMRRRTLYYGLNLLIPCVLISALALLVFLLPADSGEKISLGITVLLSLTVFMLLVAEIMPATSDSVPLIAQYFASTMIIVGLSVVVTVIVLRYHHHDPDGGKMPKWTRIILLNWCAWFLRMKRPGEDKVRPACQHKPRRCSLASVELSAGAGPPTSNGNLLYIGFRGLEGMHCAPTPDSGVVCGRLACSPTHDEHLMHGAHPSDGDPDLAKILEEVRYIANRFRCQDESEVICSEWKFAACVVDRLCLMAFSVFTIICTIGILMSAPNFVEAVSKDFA
# Description: as §2, §3
# mouse 5-HT3A = target: T5, mouse 5-HT3A (Mus musculus, UniProt P23979); assay: Two-electrode voltage-clamp recording, mouse 5-HT3ARs in Xenopus oocytes; type: cell-based; set-up: concentration or dose not given beside the values; settings: inhibition of agonist-evoked responses, mean ± SEM
# T5 construct: expressed in transfected cells; host or cells: Xenopus laevis oocytes
# T5 sequence (P23979 24-489): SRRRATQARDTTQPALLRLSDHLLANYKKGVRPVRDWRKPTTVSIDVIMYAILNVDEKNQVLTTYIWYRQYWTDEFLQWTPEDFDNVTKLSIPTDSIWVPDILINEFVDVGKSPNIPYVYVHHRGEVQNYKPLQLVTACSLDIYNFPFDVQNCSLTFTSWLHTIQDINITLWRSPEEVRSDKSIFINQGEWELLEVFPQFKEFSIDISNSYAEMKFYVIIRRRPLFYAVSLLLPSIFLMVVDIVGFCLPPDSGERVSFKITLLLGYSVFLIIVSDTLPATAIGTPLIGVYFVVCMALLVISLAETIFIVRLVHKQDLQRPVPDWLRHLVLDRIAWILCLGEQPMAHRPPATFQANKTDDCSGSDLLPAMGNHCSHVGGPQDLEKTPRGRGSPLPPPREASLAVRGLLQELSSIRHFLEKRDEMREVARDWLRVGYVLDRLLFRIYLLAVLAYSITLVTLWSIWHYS
# Description: as §2, §3
# [2] = target: T6, α7/5-HT3A subunit chimera (rat α7 N-terminal domain, mouse 5-HT3A transmembrane and C-terminal domain) (UniProt P23979+Q05941, M226I/T225I); assay: Two-electrode voltage-clamp recording, α7/5-HT3A subunit chimera in Xenopus oocytes; type: cell-based; set-up: concentration or dose not given beside the values; settings: α7/5-HT3A chimera; inhibition of agonist-evoked responses; mean ± SEM
# T6 construct: containing the extracellular/N-terminal domain of the rat α7 nAChR subunit; the transmembrane/C-terminal domain of the mouse 5-HT3A subunit; expressed in transfected cells; host or cells: Xenopus laevis oocytes
# T6 sequence (Q05941+P23979 fused Q05941:T225I/Q05941:M226I): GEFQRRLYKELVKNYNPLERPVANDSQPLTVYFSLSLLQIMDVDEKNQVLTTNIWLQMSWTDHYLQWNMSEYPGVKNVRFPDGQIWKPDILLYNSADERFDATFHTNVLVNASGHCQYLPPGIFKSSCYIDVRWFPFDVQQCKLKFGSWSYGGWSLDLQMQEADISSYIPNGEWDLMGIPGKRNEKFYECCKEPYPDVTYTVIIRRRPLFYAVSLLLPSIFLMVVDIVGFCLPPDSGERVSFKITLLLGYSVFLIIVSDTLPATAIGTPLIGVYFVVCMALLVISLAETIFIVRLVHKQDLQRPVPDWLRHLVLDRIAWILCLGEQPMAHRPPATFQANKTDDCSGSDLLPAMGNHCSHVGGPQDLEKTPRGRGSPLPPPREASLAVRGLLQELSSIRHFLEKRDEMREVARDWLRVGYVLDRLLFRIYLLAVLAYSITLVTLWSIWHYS
# Description: as §2, §3
# α7 L247T nAChRs = target: T7, α7 L247T nAChRs (Homo sapiens, UniProt P36544, L270T); assay: Two-electrode voltage-clamp recording, human α7 nAChRs containing the L247T mutation in Xenopus oocytes; type: cell-based; settings: α7 L247T; for nH (Hill coefficient) / EC50: mean ± SEM; for EC50: read-out: EC50 (agonist); for Imax: normalised to the maximum response to acetylcholine
# T7 construct: expressed in transfected cells; host or cells: Xenopus laevis oocytes (cRNA injection)
# T7 sequence (P36544 23-502 L270T): as the sequence (P36544 23-502) above, with L248T counted along it
# Procedure: (§4) Site-directed mutagenesis was performed on human nAChR α7 subunit cDNA in plasmid pSP64GL using the QuikChange mutagenesis kit (Stratagene) and verified by nucleotide sequencing. Plasmid pSP64GL containing wild-type or mutated human α7 cDNA was linearized with BamHI and purified with QIAQuik PCR purification kit (Qiagen). In vitro synthesis of cRNA was performed using mMessage mMachine SP6 transcription kit (Life Technologies).
# as §1
# α7 M260L nAChRs = target: T8, α7 M260L nAChRs (Homo sapiens, UniProt P36544, M283L); assay: Two-electrode voltage-clamp recording, human α7 nAChRs containing the M260L mutation in Xenopus oocytes; type: cell-based; settings: for Fold potentiation (maximum peak response compared to acetylcholine alone): acetylcholine 100 μM, pre- and co-application of modulator (10 μM); for Agonist effect on M260L receptors: compound applied alone; for Imax: normalised to the maximum response to acetylcholine
# T8 construct: expressed in transfected cells; host or cells: Xenopus laevis oocytes (cRNA injection)
# T8 sequence (P36544 23-502 M283L): as the sequence (P36544 23-502) above, with M261L counted along it
# Procedure: as §4, §1
# human α7 nAChRs [3] = target: T1, human α7 nAChRs; type: binding; settings: [3H]-α-bungarotoxin 1 nM; tsA201 cells
# [4] = wild-type α7 desensitised by continued acetylcholine (100 μM), compound 10 μM
# [5] = M260L α7, type I PAM 10 μM pre-applied for 10 s then co-applied, n = 3
SMILES,Fold potentiation (human α7 nAChRs [1]) [fold],Imax (human α7 nAChRs [1]),Effect on rate of desensitisation of acetylcholine-evoked responses (human α7 nAChRs [1]),Recovery from desensitisation (reactivation of desensitised receptors) (human α7 nAChRs [1]; [4]),% Inhibition (human α4β2 nAChRs) [%],% Inhibition (human α3β4 nAChRs) [%],Fold potentiation (rat α7 nAChRs) [fold],% Inhibition (mouse 5-HT3A) [%],% Inhibition [2] [%],nH (Hill coefficient) (α7 L247T nAChRs),EC50 (α7 L247T nAChRs) [nM],Imax (α7 L247T nAChRs),Fold potentiation (maximum peak response compared to acetylcholine alone) (α7 M260L nAChRs; M260L α7) [fold],Agonist effect on M260L receptors (α7 M260L nAChRs),Imax (α7 M260L nAChRs; α7 M260L),Displacement of [3H]-α-bungarotoxin binding (human α7 nAChRs [3]),melting point [°C],Desensitisation after receptor reactivation (human α7 nAChRs [1]),Total net charge transfer relative to initial application of acetylcholine alone (human α7 nAChRs [1]) [fold],other results
"COc1ccc(-c2nc(-c3ccc(Br)cc3)nn2-c2ccc(S(N)(=O)=O)cc2)cc1 [TBS-346, 4-(3-(4-bromophenyl)-5-(4-methoxyphenyl)-1H-1,2,4-triazol-1-yl)benzenesulfonamide]",10.5 ± 2.5,0.0 ± 0.0,minimal changes to desensitisation,no detectable responses,23.1 ± 5.7,68.4 ± 3.0,8.7 ± 5.3,30.8 ± 15.5,13.4 ± 7.7,1.7 ± 0.3,100 ± 40,0.9 ± 0.1,2.8 ± 0.6,no agonist effect,0.0 ± 0.0,no significant displacement,290 to 294,,,Block of agonist responses to TBS-516 (10 μM) (α7 M260L nAChRs; [5]): 83.4 ± 4.1%; Block of agonist responses to TQS (10 μM) (α7 M260L nAChRs; [5]): 95.7 ± 1.1%
"NS(=O)(=O)c1ccc(-n2nc(-c3ccc(Br)cc3)nc2Cc2ccccc2)cc1 [TBS-516, 4-(5-benzyl-3-(4-bromophenyl)-1H-1,2,4-triazol-1-yl)benzenesulfonamide]",11.3 ± 3.1,0.0 ± 0.0,dramatic slowing of desensitisation,caused recovery from desensitisation,1.7 ± 0.4,31.1 ± 0.6,3.6 ± 1.0,10.4 ± 7.5,9.2 ± 12.8,2.5 ± 0.3,200 ± 40,1.1 ± 0.1,8.0 ± 3.1,converted into agonists,3.7 ± 0.6,no significant displacement,203 to 205,no desensitisation was observed,250 ± 71,"Response on reactivation of desensitised receptors relative to response to 100 μM acetylcholine (human α7 nAChRs [1]; [4]): 3.2 ± 0.9 fold; nH (Hill coefficient) (α7 M260L nAChRs; α7 M260L, mean ± SEM): 1.8 ± 0.3; EC50 (α7 M260L nAChRs; α7 M260L, mean ± SEM, read-out: EC50 (agonist)): 8900 ± 2500 nM"
"NS(=O)(=O)c1ccc(-n2nc(-c3ccc(Br)cc3)nc2CCc2ccccc2)cc1 [TBS-556, 4-(3-(4-bromophenyl)-5-phenethyl-1H-1,2,4-triazol-1-yl)benzenesulfonamide]",4.7 ± 0.2,,intermediate between those of classical type I and type II PAMs,caused recovery from desensitisation,3.2 ± 0.9,16 ± 13,4.3 ± 0.6,10 ± 1.9,1.0 ± 1.0,,,,6.6 ± 1.0,converted into agonists,,no significant displacement,184 to 186,no desensitisation was observed,27 ± 6,Response on reactivation of desensitised receptors as % of the response to 100 μM acetylcholine (human α7 nAChRs [1]; [4]): 57.3 ± 10.1%

# Source: PMC4548482 (Neuropharmacology, 2015)
